Laboratory results taken from PubChem BioAssay AID248 (DTP/NCI, 2004).
Where “and” joins values, the source holds several entries; their conditions need not be identical. Equal values may be shown once. Toxic doses and inconclusive results are not listed.

Tested on: L1210 leukemia ip in BDF1 mice, survival T/C
Experiment: NCI In Vivo Anticancer Drug Screen. Data for tumor model L1210 Leukemia (intraperitoneal) in B6D2F1 (BDF1) mice
Conditions: endpoint: mean survival time, higher = longer survival
Summary of the method: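 Tumor was transplanted into mice, which were then dosed with test compound or vehicle alone. Survival was recorded for each group, and the treated figure was expressed relative to the control figure.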

[1] = dose: 100.0 mg/kg/injection, schedule: Q01DX001 (ip), vehicle: saline
[2] = dose: 200.0 mg/kg/injection, schedule: Q01DX001 (ip), vehicle: saline
[3] = dose: 100.0 mg/kg/injection, schedule: Q01DX009 (ip), vehicle: saline
[4] = dose: 100.0 mg/kg/injection, schedule: Q04DX003 (ip), vehicle: saline
[5] = dose: 200.0 mg/kg/injection, schedule: Q01DX009 (ip), vehicle: saline
[6] = dose: 200.0 mg/kg/injection, schedule: Q04DX003 (ip), vehicle: saline
[7] = dose: 100.0 mg/kg/injection, schedule: Q01DX009 (ip), vehicle: saline with Tween-80
[8] = dose: 200.0 mg/kg/injection, schedule: Q01DX009 (ip), vehicle: saline with Tween-80
[9] = dose: 400.0 mg/kg/injection, schedule: Q01DX009 (ip), vehicle: saline with Tween-80
[10] = dose: 400.0 mg/kg/injection, schedule: Q01DX001 (ip), vehicle: saline

CCOC(=O)C(Cc1ccc(O)c(N(CCO)CCO)c1)N1C(=O)c2ccccc2C1=O (configuration not stated)
T/C [1]: 101 % of control | T/C [2]: 112 % of control

CC(c1ccccc1)C(O)c1ccccc1 (configuration not stated)
T/C (dose: 100.0 mg/kg/injection, schedule: Q01DX001 (ip), vehicle: saline with Tween-80): 97 % of control | T/C (dose: 200.0 mg/kg/injection, schedule: Q01DX001 (ip), vehicle: saline with Tween-80): 91 % of control | T/C (dose: 400.0 mg/kg/injection, schedule: Q01DX001 (ip), vehicle: saline with Tween-80): 91 % of control

CCCCNP(=O)(OCC)OCC
T/C (dose: 12.5 mg/kg/injection, schedule: Q01DX009 (ip), vehicle: saline): 91 % of control | T/C (dose: 12.5 mg/kg/injection, schedule: Q04DX003 (ip), vehicle: saline): 101 % of control | T/C (dose: 25.0 mg/kg/injection, schedule: Q01DX009 (ip), vehicle: saline): 104 % of control | T/C (dose: 25.0 mg/kg/injection, schedule: Q04DX003 (ip), vehicle: saline): 113 % of control | T/C (dose: 50.0 mg/kg/injection, schedule: Q01DX009 (ip), vehicle: saline): 104 % of control | T/C (dose: 50.0 mg/kg/injection, schedule: Q04DX003 (ip), vehicle: saline): 101 % of control | T/C [3]: 109 % of control | T/C [4]: 101 % of control | T/C [5]: 96 % of control | T/C [6]: 101 % of control

CCOC(=O)CNc1ccc(C(=O)OCC)s1
T/C (dose: 31.25 mg/kg/injection, schedule: Q01DX009 (ip), vehicle: acetone): 98 % of control | T/C (dose: 62.5 mg/kg/injection, schedule: Q01DX009 (ip), vehicle: acetone): 100 % of control | T/C (dose: 125.0 mg/kg/injection, schedule: Q01DX009 (ip), vehicle: acetone): 96 % of control | T/C (dose: 190.0 mg/kg/injection, schedule: Q01DX009 (ip), vehicle: saline): 94 % of control | T/C (dose: 285.0 mg/kg/injection, schedule: Q01DX009 (ip), vehicle: saline): 88 % of control

NN1C(=O)c2ccccc2C1=O
T/C [7]: 100 % of control | T/C [8]: 95 % of control | T/C [9]: 92 % of control

O/N=C/CCCC/C=N/O
T/C (dose: 50.0 mg/kg/injection, schedule: Q01DX009 (ip), vehicle: saline with Tween-80): 91 % of control | T/C [7]: 91 % of control | T/C [8]: 91 % of control

OCC(O)COc1ccc(Cl)cc1Cl (configuration not stated)
T/C [7]: 105 % of control | T/C [8]: 101 % of control

S=C(S)Nc1ccccc1
T/C (dose: 25.0 mg/kg/injection, schedule: Q01DX001 (ip), vehicle: Klucel (hydroxypropylcellulose) (HPC)): 95 % of control | T/C (dose: 50.0 mg/kg/injection, schedule: Q01DX001 (ip), vehicle: Klucel (hydroxypropylcellulose) (HPC)): 92 % of control | T/C (dose: 100.0 mg/kg/injection, schedule: Q01DX001 (ip), vehicle: Klucel (hydroxypropylcellulose) (HPC)): 94 % of control and 95 % of control

NC(=S)NN=C1CCCCC1
T/C (dose: 5.0 mg/kg/injection, schedule: Q01DX001 (ip), vehicle: carboxymethylcellulose (CMC)): 96 % of control | T/C (dose: 10.0 mg/kg/injection, schedule: Q01DX001 (ip), vehicle: carboxymethylcellulose (CMC)): 96 % of control | T/C (dose: 20.0 mg/kg/injection, schedule: Q01DX001 (ip), vehicle: carboxymethylcellulose (CMC)): 107 % of control

Cc1c(NC(=O)Nc2ccc(C3=NCCCN3)cc2)cccc1NC(=O)Nc1ccc(C2=NCCCN2)cc1
T/C (dose: 4.0 mg/kg/injection, schedule: Q01DX Z (ip), vehicle: water): 96 % of control | T/C (dose: 6.0 mg/kg/injection, schedule: Q01DX Z (ip), vehicle: water): 121 % of control | T/C (dose: 8.0 mg/kg/injection, schedule: Q01DX Z (ip), vehicle: water): 109 % of control | T/C (dose: 25.0 mg/kg/injection, schedule: Q01DX Z (ip), vehicle: water): 215 % of control | T/C (dose: 31.0 mg/kg/injection, schedule: Q01DX Z (oral), vehicle: water): 113 % of control | T/C (dose: 50.0 mg/kg/injection, schedule: Q01DX Z (ip), vehicle: water): 162 % of control | T/C (dose: 100.0 mg/kg/injection, schedule: Q01DX Z (ip), vehicle: water): 191 % of control | T/C (dose: 125.0 mg/kg/injection, schedule: Q01DX Z (oral), vehicle: water): 108 % of control

O=[N+]([O-])c1ccc2c(c1[N+](=O)[O-])CCCC2
T/C [7]: 93 % of control | T/C (dose: 100.0 mg/kg/injection, schedule: Q04DX003 (ip), vehicle: saline with Tween-80): 93 % of control | T/C [8]: 98 % of control | T/C (dose: 200.0 mg/kg/injection, schedule: Q04DX003 (ip), vehicle: saline with Tween-80): 93 % of control | T/C [9]: 98 % of control | T/C (dose: 400.0 mg/kg/injection, schedule: Q04DX003 (ip), vehicle: saline with Tween-80): 98 % of control

COc1ccc(C(=O)/C=C/c2ccccc2)c(O)c1
T/C (dose: 50.0 mg/kg/injection, schedule: Q01DX001 (ip), vehicle: saline): 98 % of control | T/C [1]: 102 % of control | T/C [2]: 102 % of control | T/C [10]: 98 % of control

CC(C)=CN1CC2CCCC(CC2)C1
T/C (dose: 100.0 mg/kg/injection, schedule: Q04DX003 (ip), vehicle: Klucel (hydroxypropylcellulose) (HPC)): 98 % of control | T/C (dose: 200.0 mg/kg/injection, schedule: Q04DX003 (ip), vehicle: Klucel (hydroxypropylcellulose) (HPC)): 101 % of control

CCCCCCCCCCCCSC1CC(=O)N(c2ccccc2)C1=O (configuration not stated)
T/C (dose: 37.5 mg/kg/injection, schedule: Q04DX003 (ip), vehicle: other): 99 % of control and 109 % of control | T/C (dose: 50.0 mg/kg/injection, schedule: Q01DX001 (ip), vehicle: other): 98 % of control and 101 % of control and 104 % of control | T/C (dose: 75.0 mg/kg/injection, schedule: Q04DX003 (ip), vehicle: other): 86 % of control and 89 % of control | T/C (dose: 100.0 mg/kg/injection, schedule: Q04DX002 (ip), vehicle: other): 95 % of control and 89 % of control | T/C (dose: 100.0 mg/kg/injection, schedule: Q04DX003 (ip), vehicle: other): 103 % of control | T/C (dose: 150.0 mg/kg/injection, schedule: Q04DX003 (ip), vehicle: other): 86 % of control and 88 % of control | T/C (dose: 200.0 mg/kg/injection, schedule: Q04DX002 (ip), vehicle: other): 89 % of control and 92 % of control | T/C (dose: 200.0 mg/kg/injection, schedule: Q04DX003 (ip), vehicle: other): 97 % of control | T/C (dose: 400.0 mg/kg/injection, schedule: Q04DX002 (ip), vehicle: other): 96 % of control and 89 % of control | T/C (dose: 400.0 mg/kg/injection, schedule: Q04DX003 (ip), vehicle: other): 94 % of control

COc1ccc(CC2Cc3cc(OC)c(OC)cc3C=N2)cc1OC (configuration not stated)
T/C [3]: 100 % of control | T/C [4]: 98 % of control | T/C [5]: 100 % of control | T/C [6]: 93 % of control | T/C (dose: 400.0 mg/kg/injection, schedule: Q04DX003 (ip), vehicle: saline): 91 % of control

COC(=O)C1CCC(N)CC1 (configuration not stated)
T/C [1]: 106 % of control and 105 % of control | T/C [2]: 104 % of control and 94 % of control | T/C [10]: 108 % of control and 96 % of control

O=C(COc1ccc(Cl)cc1Cl)NCCSCc1ccccc1
T/C (dose: 100.0 mg/kg/injection, schedule: Q01DX009 (ip), vehicle: Klucel (hydroxypropylcellulose) (HPC)): 91 % of control | T/C (dose: 400.0 mg/kg/injection, schedule: Q01DX009 (ip), vehicle: Klucel (hydroxypropylcellulose) (HPC)): 89 % of control

CC1(C)OCC(N)(CO)CO1
T/C (dose: 100.0 mg/kg/injection, schedule: Q01DX005 (ip), vehicle: water): 105 % of control | T/C (dose: 100.0 mg/kg/injection, schedule: Q04DX003 (ip), vehicle: water): 109 % of control | T/C (dose: 200.0 mg/kg/injection, schedule: Q01DX005 (ip), vehicle: water): 107 % of control | T/C (dose: 200.0 mg/kg/injection, schedule: Q04DX003 (ip), vehicle: water): 108 % of control | T/C (dose: 400.0 mg/kg/injection, schedule: Q01DX005 (ip), vehicle: water): 97 % of control | T/C (dose: 400.0 mg/kg/injection, schedule: Q04DX003 (ip), vehicle: water): 98 % of control

COc1cc(C(=O)c2cocc2C(=O)c2ccc3c(c2)OCO3)cc(OC)c1OC
T/C (dose: 50.0 mg/kg/injection, schedule: Q01DX009 (ip), vehicle: acetone): 110 % of control | T/C (dose: 100.0 mg/kg/injection, schedule: Q01DX009 (ip), vehicle: acetone): 94 % of control | T/C (dose: 200.0 mg/kg/injection, schedule: Q01DX009 (ip), vehicle: acetone): 112 % of control | T/C (dose: 400.0 mg/kg/injection, schedule: Q01DX009 (ip), vehicle: acetone): 110 % of control

C=CC1CN(CCc2cc3ccccc3[nH]2)CCC1CC(=O)OCC (configuration not stated)
T/C [7]: 91 % of control | T/C [8]: 96 % of control | T/C [9]: 97 % of control

CC(C)OCCCN
T/C (dose: 100.0 mg/kg/injection, schedule: Q01DX001 (ip), vehicle: carboxymethylcellulose (CMC)): 97 % of control | T/C (dose: 200.0 mg/kg/injection, schedule: Q01DX001 (ip), vehicle: carboxymethylcellulose (CMC)): 97 % of control

COc1ccc(OC)c(C2=CCCCCC2)c1OC
T/C [7]: 95 % of control | T/C [8]: 106 % of control | T/C [9]: 100 % of control
